# Laboratory results: PubChem BioAssay (NCI)
#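 All cell lines were grown in 96-well plates and treated with compound for 48 hours. Here, GI50 denotes the concentration required for 50% inhibition of growth. Definition used: TGI = concentration required for complete inhibition of growth.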
# Tests used:
# Test in all cases: NCI-60 cell line screen, 48 h
# SK-MEL-5 melanoma = test system: SK-MEL-5 melanoma
# ACHN renal = test system: ACHN renal
# OVCAR-5 ovarian = test system: OVCAR-5 ovarian
# U251 CNS = test system: U251 CNS
# A549 NSCLC = test system: A549 NSCLC
# HT29 colon = test system: HT29 colon
# HOP-62 NSCLC = test system: HOP-62 NSCLC
# DU-145 prostate = test system: DU-145 prostate
# OVCAR-3 ovarian = test system: OVCAR-3 ovarian
# LOX IMVI melanoma = test system: LOX IMVI melanoma
SMILES,GI50 (SK-MEL-5 melanoma) [µM],TGI (SK-MEL-5 melanoma) [µM],GI50 (ACHN renal) [µM],TGI (ACHN renal) [µM],GI50 (OVCAR-5 ovarian) [µM],TGI (OVCAR-5 ovarian) [µM],GI50 (U251 CNS) [µM],TGI (U251 CNS) [µM],GI50 (A549 NSCLC) [µM],TGI (A549 NSCLC) [µM],GI50 (HT29 colon) [µM],TGI (HT29 colon) [µM],GI50 (HOP-62 NSCLC) [µM],TGI (HOP-62 NSCLC) [µM],GI50 (DU-145 prostate) [µM],TGI (DU-145 prostate) [µM],GI50 (OVCAR-3 ovarian) [µM],TGI (OVCAR-3 ovarian) [µM],TGI (LOX IMVI melanoma) [µM],GI50 (LOX IMVI melanoma) [µM]
CCOC(=O)c1ccc2c(c1)nc(/C=C/c1ccc(Cl)cc1)n2-c1cc(C(C)(C)C)[nH]n1,3.63,28.3,2.03,5.75,18.5,> 100,3.28,13.2,3.64,19.7,11.3,> 100,5.24,28.8,21.5,> 100,2.86,8.26,,
CSc1ccc(OCC2OC2O)cc1 (stereo not given),,35.6,,> 100,,> 100,,> 100,,> 100,,> 90.9,,> 100,,,,> 100,> 31.6,
NCCCCCCCCCCCn1c2c(c3ccccc3c1=O)C(=O)c1ccccc1-2,10.3,29.5,3.11,8.11,2.48,9.01,10.2,27.1,20,74.7,,,2.19,4.83,4.6,14.8,2.1,5.96,21.1,5
Cc1cc(=O)n2c3c(c4c(cc13)c(CO)cc(=O)n4C)OC2,,75.3,,63.5,,72.3,,> 100,,> 100,,> 100,,40.2,,,,40.1,21.1,
CC(=O)[CH-]C(=O)c1ccccc1.CC(=O)[CH-]C(=O)c1ccccc1.CC[C@H](/C=C/C(C)[C@H]1CCC2[C@@H]3CC=C4C[C@@H]([O-])CC[C@]4(C)C3CC[C@@]21C)C(C)C.CC[O-].[Ti+4] (stereo not given in full),> 100,> 100,16.2,> 100,> 100,> 100,> 100,> 100,> 100,> 100,> 100,> 100,> 100,> 100,,,> 100,> 100,> 100,> 100
Cc1cc(Cl)ccc1NC(=O)CCCC(=O)C1CCC/C1=N\NC(=O)CC#N (stereo not given),,> 100,,> 100,,> 100,,> 100,,> 100,,> 100,,,,,,> 100,,
C1COCCOCCOCCOCCOCCO1.[Cl][Sn]([Cl])([c]1ccccc1)[c]1ccccc1,4.86,17.2,10.9,22.8,17.8,31.6,2.65,6.81,20.2,34.4,7.28,18.9,20.3,35,,,4.88,15.5,4.77,2.36
O=C(N/C(=C\c1ccc(/C=C(\NC(=O)c2ccccc2)c2nc3cc(Cl)ccc3[nH]2)cc1)c1nc2cc(Cl)ccc2[nH]1)c1ccccc1,,47.8,,> 100,,> 100,,> 100,,> 100,,> 100,,> 100,,,,> 100,> 100,
COc1cccc(NC(=O)C(C)(C)C)c1SSc1c(NC(=O)C(C)(C)C)cccc1OC,,> 100,,> 100,,53.2,,35.1,,> 100,,> 65.1,,> 100,,,,> 100,30.4,
